In patent US8580762B2, “Substituted purine and 7-deazapurine compounds” (Epizyme, Inc., priority 2010, dated 2013):

What follows are compounds tested against DOT1L(1-416) (Homo sapiens, UniProt Q8TEK3) (assay: Determination of IC50: DOT1L(1-416) methyltransferase assay, 3H-SAM, oligonucleosome substrate, Flashplate). Details: class symbols; read-out: DOT1L IC50.
Sequence of DOT1L(1-416) (Q8TEK3 1-416): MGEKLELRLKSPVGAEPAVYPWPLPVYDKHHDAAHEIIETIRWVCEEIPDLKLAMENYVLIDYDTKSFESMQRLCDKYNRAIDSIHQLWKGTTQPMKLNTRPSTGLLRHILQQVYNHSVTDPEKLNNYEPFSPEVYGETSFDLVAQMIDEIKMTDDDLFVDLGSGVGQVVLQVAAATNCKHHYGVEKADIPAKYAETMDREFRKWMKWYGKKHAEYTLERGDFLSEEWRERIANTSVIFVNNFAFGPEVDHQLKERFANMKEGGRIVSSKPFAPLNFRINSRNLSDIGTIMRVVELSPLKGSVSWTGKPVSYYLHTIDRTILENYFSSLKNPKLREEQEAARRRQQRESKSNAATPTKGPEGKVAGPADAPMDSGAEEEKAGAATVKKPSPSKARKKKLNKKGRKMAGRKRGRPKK
Format: biochemical
Description: Determination of IC50. Test compounds were serially diluted 3 fold in DMSO for 10 points and 1 μl was plated in a 384 well microtiter plate. […] 10 μl per well of substrate mix (same assay buffer with 200 nM S-[methyl-^3H]-adenosyl-L methionine, 600 nM of unlabeled […], and 20 nM oligonueleosome) was added to initiate the reaction. Reaction was incubated for 120 minutes at room temperature and quenched with 10 μl per well of 100 μM S-methyl-adenosyl-L methionine. For detection, substrate from 50 μl of reaction was immobilized on a 384 well Streptavidin coated Flashplate (Perkin Elmer) (also coated with 0.2% polyethyleneimine) and read on a Top Count scintillation counter (Perkin Elmer).
For `CN(C[C@H]1C[C@@H](n2ccc3c(N)ncnc32)[C@H](O)[C@@H]1O)C1CC(CCc2nc3cc(Cl)c(Cl)cc3[nH]2)C1` (stereo partly drawn) [Compound 23, (1R,2S,3R,5R)-3-(4-amino-7H-pyrrolo[2,3-d]pyrimidin-7-yl)-5-(((3-(2-(5,6-dichloro-1H-benzo[d]imidazol-2-yl)ethyl)cyclobutyl)(methyl)amino)methyl)cyclopentane-1,2-diol], the IC50 was less than 100 nM. In the case of `CN(C[C@H]1C[C@@H](n2ccc3c(N)ncnc32)[C@H](O)[C@@H]1O)C1CC(CCc2nc3cc(OC(F)(F)F)ccc3[nH]2)C1` (stereo partly drawn) [Compound 24, (1R,2S,3R,5R)-3-(4-amino-7H-pyrrolo[2,3-d]pyrimidin-7-yl)-5-((methyl(3-(2-(5-(trifluoromethoxy)-1H-benzo[d]imidazol-2-yl)ethyl)cyclobutyl)amino)methyl)cyclopentane-1,2-diol], the IC50 is reported as less than 100 nM. For `CCN(C[C@H]1C[C@@H](n2ccc3c(N)ncnc32)[C@H](O)[C@@H]1O)C1CC(CCc2nc3cc(C(C)(C)C)ccc3[nH]2)C1` (stereo partly drawn) [Compound 25, (1R,2S,3R,5R)-3-(4-amino-7H-pyrrolo[2,3-d]pyrimidin-7-yl)-5-(((3-(2-(5-(tert-butyl)-1H-benzo[d]imidazol-2-yl)ethyl)cyclobutyl)(ethyl)amino)methyl)cyclopentane-1,2-diol], the IC50 was less than 100 nM. `CN(C[C@H]1C[C@@H](n2ccc3c(N)ncnc32)[C@H](O)[C@@H]1O)C1CC(CCc2nc3cc(Br)ccc3[nH]2)C1` (stereo partly drawn) [Compound 26, (1R,2S,3R,5R)-3-(4-amino-7H-pyrrolo[2,3-d]pyrimidin-7-yl)-5-(((3-(2-(5-bromo-1H-benzo[d]imidazol-2-yl)ethyl)cyclobutyl)(methyl)amino)methyl)cyclopentane-1,2-diol] showed an IC50 of less than 100 nM. `CC(C)N(C[C@H]1O[C@@H](n2cnc3c(N)ncnc32)[C@H](O)[C@@H]1O)C1CC(CCc2nc3cc(C4(C)CCC4)ccc3[nH]2)C1` (stereo partly drawn) [Compound 27, (2R,3R,4S,5R)-2-(6-amino-9H-purin-9-yl)-5-((isopropyl(3-(2-(5-(1-methylcyclobutyl)-1H-benzo[d]imidazol-2-yl)ethyl)cyclobutyl)amino)methyl)tetrahydrofuran-3,4-diol] gave an IC50 of less than 100 nM. Work on `CC(C)N(C[C@H]1O[C@@H](n2cnc3c(N)ncnc32)[C@H](O)[C@@H]1O)[C@H]1C[C@@H](CCc2nc3cc(C4(C)CCC4)ccc3[nH]2)C1` [Compound 28, (2R,3R,4S,5R)-2-(6-amino-9H-purin-9-yl)-5-((isopropyl((1r,3S)-3-(2-(5-(1-methylcyclobutyl)-1H-benzo[d]imidazol-2-yl)ethyl)cyclobutyl)amino)methyl)tetrahydrofuran-3,4-diol] yielded an IC50 of less than 100 nM. Work on `CN(C[C@H]1C[C@@H](n2ccc3c(N)ncnc32)[C@H](O)[C@@H]1O)C1CC(CCc2nc3cc(C4(C)CCC4)ccc3[nH]2)C1` (stereo partly drawn) [Compound 29, (1R,2S,3R,5R)-3-(4-amino-7H-pyrrolo[2,3-d]pyrimidin-7-yl)-5-((methyl(3-(2-(5-(1-methylcyclobutyl)-1H-benzo[d]imidazol-2-yl)ethyl)cyclobutyl)amino)methyl)cyclopentane-1,2-diol] yielded an IC50 of less than 100 nM. For `CN(C[C@H]1O[C@@H](n2cnc3c(N)ncnc32)[C@H](O)[C@@H]1O)[C@H]1C[C@@H](CCc2nc3cc(C4(C)CCC4)ccc3[nH]2)C1` [Compound 30, (2R,3R,4S,5R)-2-(6-amino-9H-purin-9-yl)-5-((methyl((1r,3S)-3-(2-(5-(1-methylcyclobutyl)-1H-benzo[d]imidazol-2-yl)ethyl)cyclobutyl)amino)methyl)tetrahydrofuran-3,4-diol], the IC50 was less than 100 nM. Work on `CC(C)N(C[C@H]1O[C@@H](n2cnc3c(N)ncnc32)[C@H](O)[C@@H]1O)[C@H]1C[C@H](CCc2nc3cc(C4(C)CCC4)ccc3[nH]2)C1` [Compound 31, (2R,3R,4S,5R)-2-(6-amino-9H-purin-9-yl)-5-((isopropyl((1s,3R)-3-(2-(5-(1-methylcyclobutyl)-1H-benzo[d]imidazol-2-yl)ethyl)cyclobutyl)amino)methyl)tetrahydrofuran-3,4-diol] yielded an IC50 of less than 100 nM. In the case of `CN(C[C@H]1O[C@@H](n2cnc3c(N)ncnc32)[C@H](O)[C@@H]1O)C1CC(CCc2nc3cc(C4(C)CCC4)ccc3[nH]2)C1` (stereo partly drawn) [Compound 33, (2R,3R,4S,5R)-2-(6-amino-9H-purin-9-yl)-5-((methyl(3-(2-(5-(1-methylcyclobutyl)-1H-benzo[d]imidazol-2-yl)ethyl)cyclobutyl)amino)methyl)tetrahydrofuran-3,4-diol], the IC50 is reported as less than 100 nM. With `CN(C[C@H]1O[C@@H](n2cnc3c(N)ncnc32)[C@H](O)[C@@H]1O)[C@H]1C[C@H](CCc2nc3cc(C4(C)CCC4)ccc3[nH]2)C1` [Compound 34] the IC50 was less than 100 nM. For `CN(C[C@H]1C[C@@H](n2ccc3c(N)ncnc32)[C@H](O)[C@@H]1O)[C@H]1C[C@@H](CCc2nc3cc(C4(C)CCC4)ccc3[nH]2)C1` [Compound 36, (1R,2S,3R,5R)-3-(4-amino-7H-pyrrolo[2,3-d]pyrimidin-7-yl)-5-((methyl((1r,3S)-3-(2-(5-(1-methylcyclobutyl)-1H-benzo[d]imidazol-2-yl)ethyl)cyclobutyl)amino)methyl)cyclopentane-1,2-diol], the IC50 was less than 100 nM. `CN(C[C@H]1C[C@@H](n2ccc3c(N)ncnc32)[C@H](O)[C@@H]1O)[C@H]1C[C@@H](CCc2nc3cc(OC(F)(F)F)ccc3[nH]2)C1` [Compound 37, (1R,2S,3R,5R)-3-(4-amino-7,1-pyrrolo[2,3-d]pyrimidin-7-yl)-5-((methyl((1r,3S)-3-(2-(5-(trifluoromethoxy)-1H-benzo[d]imidazol-2-yl)ethyl)cyclobutyl)amino)methyl)cyclopentane-1,2-diol] showed an IC50 of less than 100 nM. Work on `CCN(C[C@H]1C[C@@H](n2ccc3c(N)ncnc32)[C@H](O)[C@@H]1O)[C@H]1C[C@@H](CCc2nc3cc(C(C)(C)C)ccc3[nH]2)C1` [Compound 38, (1R,2S,3R,5R)-3-(4-amino-7H-pyrrolo[2,3-d]pyrimidin-7-yl)-5-((((1r,3S)-3-(2-(5-(tert-butyl)-1H-benzo[d]imidazol-2-yl)ethyl)cyclobutyl)(ethyl)amino)methyl)cyclopentane-1,2-diol] yielded an IC50 of less than 100 nM. `CN(C[C@H]1C[C@@H](n2ccc3c(N)ncnc32)[C@H](O)[C@@H]1O)[C@H]1C[C@H](CCc2nc3cc(C4(C)CCC4)ccc3[nH]2)C1` [Compound 39] showed an IC50 of less than 100 nM. `CC(C)(C)c1ccc2[nH]c(CC[C@H]3C[C@@H](N(CC4CC4)C[C@H]4C[C@@H](n5ccc6c(N)ncnc65)[C@H](O)[C@@H]4O)C3)nc2c1` [Compound 40, (1R,2S,3R,5R)-3-(4-amino-7H-pyrrolo[2,3-d]pyrimidin-7-yl)-5-((((1r,3S)-3-(2-(5-(tert-butyl)-1H-benzo[d]imidazol-2-yl)ethyl)cyclobutyl)(cyclopropylmethyl)amino)methyl)cyclopentane-1,2-diol] showed an IC50 of less than 100 nM. Work on `CC(C)N(C[C@H]1C[C@@H](n2ccc3c(N)ncnc32)[C@H](O)[C@@H]1O)[C@H]1C[C@@H](CCc2nc3cc(C(C)(C)C)ccc3[nH]2)C1` [Compound 41, (1R,2S,3R,5R)-3-(4-amino-7H-pyrrolo[2,3-d]pyrimidin-7-yl)-5-((((1r,3S)-3-(2-(5-(tert-butyl)-1H-benzo[d]imidazol-2-yl)ethyl)cyclobutyl)(isopropyl)amino)methyl)cyclopentane-1,2-diol] yielded an IC50 of less than 100 nM. With `CC(C)(C)c1ccc2[nH]c(CC[C@H]3C[C@@H](N(CC4CCC4)C[C@H]4C[C@@H](n5ccc6c(N)ncnc65)[C@H](O)[C@@H]4O)C3)nc2c1` [Compound 42, (1R,2S,3R,5R)-3-(4-amino-7H-pyrrolo[2,3-d]pyrimidin-7-yl)-5-((((1r,3S)-3-(2-(5-(tert-butyl)-1H-benzo[d]imidazol-2-yl)ethyl)cyclobutyl)(cyclobutylmethyl)amino)methyl)cyclopentane-1,2-diol] the IC50 was less than 100 nM. Compound `CC(C)(C)c1ccc2[nH]c(CCC3CC(N(C[C@H]4C[C@@H](n5ccc6c(N)ncnc65)[C@H](O)[C@@H]4O)C4CCC4)C3)nc2c1` (stereo partly drawn) [Compound 43, (1R,2S,3R,5R)-3-(4-amino-7H-pyrrolo[2,3-d]pyrimidin-7-yl)-5-(((3-(2-(5-(tert-butyl)-1H-benzo[d]imidazol-2-yl)ethyl)cyclobutyl)(cyclobutyl)amino)methyl)cyclopentane-1,2-diol] has an IC50 of less than 100 nM. `CC(C)(C)c1ccc2[nH]c(CCC3CC(N(CC4CC4)C[C@H]4C[C@@H](n5ccc6c(N)ncnc65)[C@H](O)[C@@H]4O)C3)nc2c1` (stereo partly drawn) [Compound 44, (1R,2S,3R,5R)-3-(4-amino-7H-pyrrolo[2,3-d]pyrimidin-7-yl)-5-(((3-(2-(5-(tert-butyl)-1H-benzo[d]imidazol-2-yl)ethyl)cyclobutyl)(cyclopropylmethyl)amino)methyl)cyclopentane-1,2-diol] was tested, and the IC50 was less than 100 nM. With `CC(C)CN(C[C@H]1C[C@@H](n2ccc3c(N)ncnc32)[C@H](O)[C@@H]1O)C1CC(CCc2nc3cc(C(C)(C)C)ccc3[nH]2)C1` (stereo partly drawn) [Compound 45, (1R,2S,3R,5R)-3-(4-amino-7H-pyrrolo[2,3-d]pyrimidin-7-yl)-5-(((3-(2-(5-(tert-butyl)-1H-benzo[d]imidazol-2-yl)ethyl)cyclobutyl)(isobutyl)amino)methyl)cyclopentane-1,2-diol] the IC50 was less than 100 nM. With `CC(C)(C)c1ccc2[nH]c(CC[C@H]3C[C@@H](N(C[C@H]4C[C@@H](n5ccc6c(N)ncnc65)[C@H](O)[C@@H]4O)C4CCC4)C3)nc2c1` [Compound 46, (1R,2S,3R,5R)-3-(4-amino-7H-pyrrolo[2,3-d]pyrimidin-7-yl)-5-((((1r,3S)-3-(2-(5-(tert-butyl)-1,1-benzo[d]imidazol-2-yl)ethyl)cyclobutyl)(cyclobutyl)amino)methyl)cyclopentane-1,2-diol] the IC50 was less than 100 nM.
